Literature values as cited in US20200281963A1, “HYDROGEN MOLECULE-CONTAINING PROPHYLACTIC OR THERAPEUTIC AGENT FOR OXIDATIVE DAMAGE IN INTRAOCULAR SURGERIES” (priority 2016, published 2020).

amount of hydrogen molecules that can be dissolved (in 1 L of water at 25° C. at 1 atm): 17.5 mL
amount of hydrogen molecules that can be dissolved (concentration) (water at 25° C. at 1 atm): approximately 0.8 mM
Compound: [HH] [hydrogen molecules]
